Laboratory results from patent US8586291B2 (priority 2001, dated 2013).

How the values were obtained:
T315I BCR-ABL = test: BCR-ABL protein degradation, anti-ABL western blot in Ba/F3 cells; settings: 24 hours
[1] = system: E255K BCR-ABL-expressing Ba/F3 cells; test: CRKL phosphorylation, western blot and densitometry; type: cell-based, murine; settings: 24 hours
[2] = system: Ba/F3 + IL-3 (BCR-ABL-negative parental cells); test: Growth inhibition, viable cells by trypan blue dye exclusion; type: cell-based, murine; settings: Mus musculus, BaF3, concentration reducing number of viable cells by 50%, read-out: MEAN IC50 ± S.D.
[3] = system: wild-type BCR-ABL-expressing Ba/F3 cells; test: CRKL phosphorylation, western blot and densitometry; type: cell-based, murine; settings: 24 hours
Ba/F3 P210 T315I = test: Growth inhibition, viable cells by trypan blue dye exclusion; type: cell-based, murine; settings: Mus musculus, BaF3, concentration reducing number of viable cells by 50%, read-out: MEAN IC50 ± S.D.
wild-type BCR-ABL = test: BCR-ABL protein degradation, anti-ABL western blot in Ba/F3 cells; settings: 24 hours
E255K BCR-ABL = test: as above; settings: 24 hours
[4] = system: T315I BCR-ABL-expressing Ba/F3 cells; test: CRKL phosphorylation, western blot and densitometry; type: cell-based, murine; settings: 24 hours
Ba/F3 P210 E255K = test: Growth inhibition, viable cells by trypan blue dye exclusion; type: cell-based, murine; settings: Mus musculus, BaF3, concentration reducing number of viable cells by 50%, read-out: MEAN IC50 ± S.D.
Ba/F3 P210 WT = test: as above; type: cell-based, murine; settings: Mus musculus, BaF3, concentration reducing number of viable cells by 50%, read-out: MEAN IC50 ± S.D.
v-Src versus c-Src = settings: cited from earlier work

SMILES	concentration at which BCR-ABL protein levels decrease (T315I BCR-ABL)	concentration at which virtually no BCR-ABL protein was detectable (T315I BCR-ABL)	concentration at which CRKL phosphorylation was significantly inhibited [1]	IC50 [2]	concentration at which significant changes in CRKL phosphorylation were observed [3]	IC50 (Ba/F3 P210 T315I)	concentration at which BCR-ABL protein levels decrease (wild-type BCR-ABL)	concentration at which BCR-ABL protein levels decrease (E255K BCR-ABL)	concentration at which virtually no BCR-ABL protein was detectable (E255K BCR-ABL)	concentration at which CRKL phosphorylation was significantly inhibited [4]	IC50 (Ba/F3 P210 E255K)	IC50 (Ba/F3 P210 WT)	fold resistance of v-Src versus c-Src to kinase inhibition (v-Src versus c-Src)
C=CCNC1=C2C[C@@H](C)C[C@H](OC)[C@H](O)[C@@H](C)/C=C(\C)[C@H](OC(N)=O)[C@@H](OC)/C=C\C=C(/C)C(=O)NC(=CC1=O)C2=O [17-AAG, 17-allylaminogeldanamycin]	0.5 µM	1.0 µM	0.5 µM	12.4 ± 0.3 µM	5.0 µM	2.3 ± 0.4 µM	0.5 to 1.0 µM	0.5 µM	1.0 µM	0.5 µM	1 ± 0.2 µM	5.2 ± 2.4 µM	
Cc1ccc(-c2nn(C(C)(C)C)c3ncnc(N)c23)cc1 [PP1]													approximately 50 fold
COC1=C2C[C@@H](C)C[C@H](OC)[C@H](O)[C@@H](C)/C=C(\C)[C@H](OC(N)=O)[C@@H](OC)/C=C\C=C(/C)C(=O)NC(=CC1=O)C2=O [GA, Geldanamycin]	0.5 µM			27.3 ± 14.1 µM		1.8 ± 2.1 µM	1.0 µM	0.5 µM			2.6 ± 2.4 µM	4.9 ± 1.6 µM	
